Experimental data reported in patent US4176189A, “Insecticidal and acaricidal hydantoin N-methylol esters” (Sumitomo Chemical Company, Limited, priority 1977, dated 1979).
Read-outs that look alike come from different tables or passages of the source.

How the values were obtained:
Type in all cases: in vivo
[1] = tested on: housefly female adults (Musca domestica); assay: Housefly female adults on treated filter paper in polyethylene cup, mortality after 48 hours (Experimental Example 1)
Protocol: Ten percent emulsifiable concentrates were prepared as in the Preparation example 3.
At the bottom of a polyethylene cup of 5.5 cm in diameter was placed a filter paper of the same size. 0.75 Ml of a 200-fold aqueous dilute solution of each emulsifiable concentrate (corresponding to 500 ppm) was dropped on the filter paper, and 30 mg of sucrose as a food was uniformly placed. Ten housefly female adults (Musca domestica) were liberated in the cup which was then covered with a lid. After 48 hours, the dead and alive were examined to obtain mortality (4 replications).

[2] = tested on: northern house mosquito female adults (Culex pipiens pallens); assay: Oil spray in (70 cm)^3 glass chamber, northern house mosquito female adults, KT50 and mortality (Experimental Example 2); conditions: for mortality at 0.1 %: Culex pipiens
Protocol: (§1) 0.1 Part of each of the present compounds was dissolved in kerosene and made up to 100 parts with kerosene. Thus, the oil spray of each compound was obtained. Ten northern house mosquito female adults (Culex pipiens pallens) and 10 housefly adults (Musca domestica) were liberated in a (70 cm)^3 glass chamber. 0.7 ml of the oil spray was applied and the number of knocked down insects was counted with the lapse of time. The value of KT50 was obtained from the mean knock-down ratio of three replications according to Finney's graphic method. After 10 minutes, the knocked down insects were collected and transferred to a recovery container and fed with a 5% sugar solution. After 24 hours, the dead and alive were examined.

[3] = tested on: housefly adults (Musca domestica); assay: Oil spray in (70 cm)^3 glass chamber, housefly adults, KT50 and mortality (Experimental Example 2); conditions: for mortality at 0.1 %: Musca domestica
Protocol: as §1

[4] = tested on: northern house mosquito female adults (Culex pipiens pallens); assay: Oil spray in (70 cm)^3 glass chamber, knock down of mosquitoes at 10 minutes (Experimental Example 3); conditions: oil sprays of Preparation example 1 (0.2 part in 100), 0.7 ml, 10 minutes after spraying, read-out: KD%
Text: Ten northern house mosquito female adults (Culex pipiens pallens) were liberated in a (70 cm)^3 glass chamber.

[5] = tested on: adult German cockroaches (Blattella germanica); assay: Flushing out of German cockroaches from shelter (Experimental Example 8); conditions: 0.7 ml of 0.1% oil spray
Protocol: Ten adult German cockroaches (Blattella germanica) were liberated in a plywood-made trigonal prism like shelter with diet and water. The shelter containing cockroaches was made stand opening upward in a glass chamber (70 cm)^3, and 0.7 ml of 0.1% oil spray of each compound was applied to the chamber. The number of flushed out insects was counted with the lapse of time.

[6] = northern house mosquito female adult, 0.1% oil spray, 0.7 ml
[7] = housefly adult, 0.1% oil spray, 0.7 ml
[8] = 200-fold aqueous dilution of emulsifiable concentrate (500 ppm), 48 hours, housefly female adults, read-out: Mortality

C#CCN1CC(=O)N(COC(=O)[C@@H]2[C@@H](C=C(C)C)C2(C)C)C1=O [Present compound (7), 1-Propargyl-3-hydantoinylmethyl chrysanthemate]
mortality at 500 µg/mL ([1]; 48 h): 100%
mortality at 0.1 % ([2]; 24 h): 100%
KT50 [2, 6]: 30 s
mortality at 0.1 % ([3]; 24 h): 10%
KT50 [3, 7]: 72 s

C#CCN1CC(=O)N(COC(=O)[C@@H]2[C@@H](C=C(Cl)Cl)C2(C)C)C1=O [Present compound (1) (d-trans isomer), 1-Propargyl-3-hydantoinylmethyl 2,2-dimethyl-3-(2,2-dichlorovinyl)cyclopropanecarboxylate]
mortality at 500 µg/mL ([1]; 48 h): 100%
mortality at 0.1 % ([2]; 24 h): 100%
KT50 [2, 6]: 30 s
mortality at 0.1 % ([3]; 24 h): 80%
KT50 [3, 7]: 60 s

C#CCN1CC(=O)N(COC(=O)C(c2ccc(Cl)c(Cl)c2)C(C)C)C1=O (stereo not drawn) [Present compound (19), 1-Propargyl-3-hydantoinylmethyl α-(3,4-dichlorophenyl)isovalerate]
pest or weed control at 0.2 % [4]: 85%

C#CCN1CC(=O)N(COC(=O)[C@@H]2[C@@H](C=C(Br)Br)C2(C)C)C1=O [Present compound (11) (d-trans isomer), 1-Propargyl-3-hydantoinylmethyl 2,2-dimethyl-3-(2,2-dibromovinyl)cyclopropanecarboxylate]
mortality at 500 µg/mL ([1]; 48 h): 100%
mortality at 0.1 % ([2]; 24 h): 85%
KT50 [2, 6]: 35 s
mortality at 0.1 % ([3]; 24 h): 30%
KT50 [3, 7]: 78 s

C#CCN1C(=O)CN(COC(=O)C(c2ccc(F)cc2)C(C)C)C1=O (stereo not drawn) [Present compound (21), 3-Propargyl-1-hydantoinylmethyl α-(4-fluorophenyl)isovalerate]
mortality at 500 µg/mL [1, 8]: 90%
pest or weed control at 0.2 % [4]: 90%

C#CCN1CC(=O)N(COC(=O)[C@@H]2[C@@H](C=C(C)C=C)C2(C)C)C1=O (relative stereo) [Present compound (10), 1-Propargyl-3-hydantoinylmethyl 2,2-dimethyl-3-(2-methylbutadienyl)cyclopropanecarboxylate]
mortality at 500 µg/mL ([1]; 48 h): 95%
pest or weed control at 0.2 % [4]: 90%

C#CCN1CC(=O)N(COC(=O)C(c2ccc(C)cc2)C(C)C)C1=O (stereo not drawn) [Present compound (15), 1-Propargyl-3-hydantoinylmethyl α-(4-methylphenyl)isovalerate]
mortality at 500 µg/mL [1, 8]: 90%
pest or weed control at 0.2 % [4]: 90%

CCCN1CC(=O)N(COC(=O)C2C(C=C(Cl)Cl)C2(C)C)C1=O (stereo not shown) [Present compound (3), 1-Propyl-3-hydantoinylmethyl 2,2-dimethyl-3-(2,2-dichlorovinyl)cyclopropanecarboxylate]
pest or weed control at 0.2 % [4]: 100%
Flushing out ([5]; 38"): 30%
Flushing out ([5]; 75"): 45%
Flushing out ([5]; 150"): 45%
Flushing out ([5]; 300"): 50%
Flushing out ([5]; 600"): 65%

C#CCN1C(=O)N(COC(=O)C2C(C=C(C)C)C2(C)C)C(=O)C1C (stereo not shown) [Present compound (23), 1-Propargyl-5-methyl-3-hydantoinylmethyl chrysanthemate]
pest or weed control at 0.2 % [4]: 100%

CNC(=O)Oc1ccccc1OC(C)C [Propoxur, reference compound]
Flushing out ([5]; 38"): 0%
Flushing out ([5]; 75"): 0%
Flushing out ([5]; 150"): 0%
Flushing out ([5]; 300"): 0%
Flushing out ([5]; 600"): 5%

C#CCN1CC(=O)N(COC(=O)C2C(C=C(Cl)Cl)C2(C)C)C1=O (racemic) [Present compound (1) (dl-cis,trans isomer), 1-Propargyl-3-hydantoinylmethyl 2,2-dimethyl-3-(2,2-dichlorovinyl)cyclopropanecarboxylate]
mortality at 500 µg/mL ([1]; 48 h): 100%
mortality at 0.1 % ([2]; 24 h): 90%
KT50 [2, 6]: 69 s
mortality at 0.1 % ([3]; 24 h): 60%
KT50 [3, 7]: 96 s
Flushing out ([5]; 38"): 35%
Flushing out ([5]; 75"): 65%
Flushing out ([5]; 150"): 75%
Flushing out ([5]; 300"): 85%
Flushing out ([5]; 600"): 95%

C#CCN1C(=O)N(COC(=O)C2C(C=C(Cl)Cl)C2(C)C)C(=O)C1C (stereo not shown) [Present compound (22), 1-Propargyl-5-methyl-3-hydantoinylmethyl 2,2-dimethyl-3-(2,2-dichlorovinyl)cyclopropanecarboxylate]
mortality at 0.1 % ([2]; 24 h): 85%
KT50 [2, 6]: 75 s
mortality at 0.1 % ([3]; 24 h): 20%
KT50 [3, 7]: 114 s

CC(C)=CC1C(C(=O)OCN2C(=O)C3=C(CCCC3)C2=O)C1(C)C (stereo not shown) [Tetramethrin, N-(chrysanthemoxymethyl)-3,4,5,6-tetrahydrophthalimide, reference compound]
mortality at 0.1 % ([2]; 24 h): 45%
KT50 [2, 6]: 162 s
mortality at 0.1 % ([3]; 24 h): 20%
KT50 [3, 7]: 372 s

C#CCN1CC(=O)N(COC(=O)[C@@H]2[C@H](C=C(Br)Br)C2(C)C)C1=O [Present compound (11) (d-cis isomer), 1-Propargyl-3-hydantoinylmethyl 2,2-dimethyl-3-(2,2-dibromovinyl)cyclopropanecarboxylate]
mortality at 500 µg/mL ([1]; 48 h): 100%
mortality at 0.1 % ([2]; 24 h): 95%
KT50 [2, 6]: 38 s
mortality at 0.1 % ([3]; 24 h): 10%
KT50 [3, 7]: 96 s

C#CCN1CC(=O)N(COC(=O)C(c2ccc3c(c2)OCO3)C(C)C)C1=O (stereo not drawn) [Present compound (16), 1-Propargyl-3-hydantoinylmethyl α-(3,4-methylenedioxyphenyl)isovalerate]
mortality at 500 µg/mL [1, 8]: 90%
pest or weed control at 0.2 % [4]: 100%

CC(C)=CC1C(C(=O)OCc2coc(Cc3ccccc3)c2)C1(C)C (stereo not shown) [Resmethrin, 5-benzyl-3-furylmethyl chrysanthemate, reference compound]
pest or weed control at 0.2 % [4]: 50%

C#CCN1CC(=O)N(COC(=O)[C@@H]2[C@@H](C=NOC)C2(C)C)C1=O [Present compound (12), 1-Propargyl-3-hydantoinylmethyl 2,2-dimethyl-3-methoxyiminomethylcyclopropanecarboxylate]
pest or weed control at 0.2 % [4]: 100%

C#CCN1CC(=O)N(COC(=O)C(c2cccc(Cl)c2)C(C)C)C1=O (stereo not drawn) [Present compound (14), 1-Propargyl-3-hydantoinylmethyl α-(3-chlorophenyl)isovalerate]
mortality at 500 µg/mL [1, 8]: 100%
pest or weed control at 0.2 % [4]: 85%

C#CCN1CC(=O)N(COC(=O)C(c2ccc(OC)cc2)C(C)C)C1=O (stereo not drawn) [Present compound (17), 1-Propargyl-3-hydantoinylmethyl α-(4-methoxyphenyl)isovalerate]
mortality at 500 µg/mL [1, 8]: 95%
mortality at 0.1 % ([2]; northern house mosquito female adult, 0.1% oil spray, 0.7 ml, after 24 hours, read-out: Mortality): 75%
KT50 [2, 6]: 140 s
mortality at 0.1 % ([3]; housefly adult, 0.1% oil spray, 0.7 ml, after 24 hours, read-out: Mortality): 35%
KT50 [3, 7]: 280 s

C=CCN1CC(=O)N(COC(=O)C(c2ccc(Br)cc2)C(C)C)C1=O (stereo not drawn) [Present compound (18), 1-Allyl-3-hydantoinylmethyl α-(4-bromophenyl)isovalerate]
mortality at 500 µg/mL [1, 8]: 100%
pest or weed control at 0.2 % [4]: 90%

C=CCN1CC(=O)N(COC(=O)C(c2ccc(Cl)cc2)C(C)C)C1=O (stereo not drawn) [Present compound (20), 1-Allyl-3-hydantoinylmethyl α-(4-chlorophenyl)isovalerate]
pest or weed control at 0.2 % [4]: 85%

C#CCN1C(=O)CN(COC(=O)C2C(C=C(Cl)Cl)C2(C)C)C1=O (stereo not shown) [Present compound (4), 3-Propargyl-1-hydantoinylmethyl 2,2-dimethyl-3-(2,2-dichlorovinyl)cyclopropanecarboxylate]
mortality at 500 µg/mL ([1]; 48 h): 100%
mortality at 0.1 % ([2]; 24 h): 85%
KT50 [2, 6]: 50 s
mortality at 0.1 % ([3]; 24 h): 30%
KT50 [3, 7]: 280 s

C=CCN1C(=O)CN(COC(=O)C2C(C=C(Cl)Cl)C2(C)C)C1=O (stereo not shown) [Present compound (5), 3-Allyl-1-hydantoinylmethyl 2,2-dimethyl-3-(2,2-dichlorovinyl)-cyclopropanecarboxylate]
mortality at 500 µg/mL ([1]; 48 h): 100%
pest or weed control at 0.2 % [4]: 100%

C#CCN1C(=O)N(COC(=O)C2C(C=C(Cl)Cl)C2(C)C)C(=O)C1CC (stereo not shown) [Present compound (24), 1-Propargyl-5-ethyl-3-hydantoinylmethyl 2,2-dimethyl-3-(2,2-dichlorovinyl)cyclopropanecarboxylate]
pest or weed control at 0.2 % [4]: 85%
